Data published in patent US7465729B2, “Methods of treatment of menopause and perimenopause using eszopiclone” (Sepracor Inc., priority 2004, dated 2008).

Key:
[1] = in vivo; cited from earlier work
[2] = tested on: mice; assay: Antimuscarinic activity in vivo: mydriasis; details: any dose tested, maximum dose 100 mg/kg, p.o.
Experimental: (§1) Eszopiclone was evaluated for antimuscarinic activity in vivo.

[3] = tested on: benzodiazepine receptor complex; details: cited from earlier work
[4] = tested on: mice; assay: Antimuscarinic activity in vivo: oxotremorine induced salivation; details: doses up to 300 mg/kg, p.o.
Experimental: as §1

[5] = tested on: conscious dogs; assay: Dose escalation safety study, cardiovascular and respiratory parameters; details: acute intravenous, 3, 5 and 12 mg/kg
Experimental: To establish the safety of eszopiclone, a dose escalation study was carried out. Cardiovascular and respiratory parameters were evaluated in conscious dogs following acute intravenous administration of (R)-, (S)- or racemic zopiclone at three doses (3, 5 and 12 mg/kg).

[6] = tested on: plasma proteins; details: cited from earlier work

For CN1CCN(C(=O)OC2c3nccnc3C(=O)N2c2ccc(Cl)cn2)CC1 (racemic) [racemic zopiclone], the “absorption from the stomach” value [1] is given as “well absorbed”, the mydriasis [2] is given as “did not produce mydriasis” and the “binding to the benzodiazepine receptor complex” value [3] is given as “binds to the benzodiazepine receptor complex, or to a site linked closely to this receptor complex”. For the same molecule, the “antagonism of oxotremorine induced salivation” value [4] was “neither (R)-, (S)-, nor racemic zopiclone significantly antagonized oxotremorine induced salivation”, the “cardiotoxicity, as evidenced by the electrocardiogram (ECG)” value [5] was “No evidence of cardiotoxicity” and the “effect on blood pressure” value [5] was “dose dependent, transient decreases in blood pressure”. For the same molecule, the “effect on heart rate” value [5] was “compensatory increase in heart rate”, the “Blood gases and blood chemistries (pH, pCO2, pO2, hematocrit, and lactate)” value ([5]; all dose groups) was “remained unaffected” and the “binding to plasma proteins” value [6] was “not highly bound”.
